Test [1] deals with SKOV-3m cells. Kind of test: intraperitoneal ovarian cancer xenograft model in mice. It counts as in vivo, Balb/cA-nu female nude mice. Conditions: for mean survival: control group 15±1 days.
Protocol: Gene therapy was also combined with chemotherapy. Therapy was initiated when sizable tumors were confirmed in magnetic resonance imaging (MRI). Adenovirus-mediated gene transfer was performed intravenously (2×10^9 pfu), while chemotherapy and monoclonal anti-VEGF-antibody were dosed intraperitoneally. […] Effectiveness was assessed by survival time and surrogate measures such as sequential MRI, immunohistochemistry, microvessel density and tumor growth.
Cells were cultured in McCoy's 5A medium (Gibco, Invitrogen, Life Technologies). Cancer cells were tested to be mycoplasma free. Before in vivo inoculation, the cells were trypsinized and counted.
Chemotherapy and anti-VEGF-antibody: Carboplatin 10 mg/ml infusion concentrate was used at a dose of 80 mg/kg for the primary treatment of Balb/cA-nu mice. The dose per Balb/cA-nu was 1.6 mg/500 μl NaCl 0.9%. Paclitaxel 6 mg/ml concentrate was used at a dose of 20 mg/kg. The dose per nude mouse was 320 μg/500 μl NaCl 0.9%. […] It was injected every fifth day.
Viral vectors: Adenoviral vectors encoding sVEGFR-1-IgG fusion protein, sVEGFR-2-IgG fusion protein, sVEGFR-3-IgG fusion protein and LacZ (AdLacZ) as a control vector were used for the study.
Animal model: Eight to 10-weeks-old (n ¼ 80) Balb/cA-nu female nude mice were used for the studies. Ovarian carcinoma was produced by inoculating 1×10^7 SKOV-3m cells into the peritoneal cavity of nude mice with a 22 G needle. Development of the ovarian cancerous tumors was followed by sequential MRI. When the first solid, measurable tumor was detected in MRI, gene transfer or other treatment was started on the following day. Mice were randomly divided into six groups:
Tumors developed within 3 weeks after the inoculation of the tumor cells. The presence of all tumors was verified by MRI (magnetic resonance imaging) before starting the therapy. Tumors were observed weekly until the death of the mice. Plasma samples were collected 6, 13, 20 and 27 days after the treatment. Gene transfer was performed intravenously (i.v.) via tail vein in the final volume of 200 ll in 0.9% saline.
MRI was done weekly after gene transfer or treatment, and tumor volumes were measured. The overall follow-up time lasted until the appearance of significant symptoms necessitating sacrifice or to the death. At the time of death, all tumor tissue, liver, spleen, kidneys and lungs were harvested, and tumor masses were weighed. Ascites fluid was collected in a syringe. The mice were kept in a pathogen-free isolated unit at the National Experimental Animal Center of the University of Eastern Finland. Food, water and sawdust bedding were autoclaved, and the mice received chow and water ad libitum.
Photographs of histological sections were taken and processed using an Olympus AX70 microscope (Olympus Optical, Japan) and analySIS (Soft Imaging System, GmbH, Germany) and PhotoShop (Adobe) softwares. Microvessel density (MVD) and total microvascular area (%) of the tumors (TVA) were measured from CD34-immunostained sections using analySIS software at 100× magnification in a blinded manner (FIG. 36). Six to 10 different fields, which represented maximum MVD areas, were selected from each tumor. Necrotic areas were avoided. In addition, the total number of LYVE-1-positive lymphatic vessels per section was counted. Mean 6 SEM of the measurements are reported. […]
Test [2] concerns malignant pleural mesothelioma. The following applies: in vivo; cited from earlier work.
Test [3] has as its system murine tumor. Kind of test: murine tumor volume: gemcitabine and interferon beta gene therapy vector (FIG. 21). Type of test: in vivo. Conditions: after 40 days; placebo about 1400.
Description: FIG. 21 is a chart comparing murine tumor volume of control; gemcitabine (administered day=0); interferon beta gene therapy vector (administered day=0); and interferon beta gene therapy vector (day=0) followed by gemcitabine (day=3).

Regarding `N.N.O=C([O-])C1(C(=O)[O-])CCC1.[Pt+2]` [carboplatin], in test [1], the mean survival came out at 13 ± 1 days. As for `N.N.[Cl][Pt][Cl]` [cisplatin], in test [2], the median survival time was 9 months. As for `Nc1ccn([C@@H]2O[C@H](CO)[C@@H](O)C2(F)F)c(=O)n1` [gemcitabine], the average tumor size in test [3] is 1200 mm^3. In turn, `CC(=O)O[C@H]1C(=O)[C@@]2(C)[C@H]([C@H](OC(=O)c3ccccc3)[C@]3(O)C[C@H](OC(=O)[C@H](O)[C@@H](NC(=O)c4ccccc4)c4ccccc4)C(C)=C1C3(C)C)[C@]1(OC(C)=O)CO[C@@H]1C[C@@H]2O` [paclitaxel] had a mean survival in test [1] of 15 ± 1 days.

Turning to bevacizumab, in test [1] (mouse, in vivo), the “effect on angiogenesis by micro-vessel measurements” value is reported as “did not have any effect”; the “effect on survival, tumor volume or mean tumor weight” value was “did not have any significant effect”; the “effect on the survival” value is listed as “did not have any significant effect”.

(Values after US20140017204A1, “Transfection of Mesothelium Body Cavity Lining with Gene Agents Followed by Chemotharapy to Treat Cancer of Organs in the Body Cavity” (WKD Holding Oy, priority 2012, published 2014).)
